Assay results reported in patent publication US9763445B2, “Safened herbicidal compositions comprising a pyridine carboxylic acid herbicide” (Dow AgroSciences, LLC, priority 2014, dated 2017).

Legend:
corn/maize (ZEAMX) = experiment: Postemergence greenhouse trial, % visual injury on corn/maize; assay type: in vivo, Zea mays; settings: for % visual injury, observed (Ob): ZEAMX; for % visual injury, Ob: alone, 35 g/ha
Summary of the method: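 Injury was scored visually (0 = none, 100 = complete kill) 20–22 d after track-sprayer application at 187 L/ha, compared with solvent-sprayed controls. Test plants at the 2–3 true leaf stage; herbicide (g ae/ha) plus cloquintocet-mexyl safener (g ai/ha) in crop-oil-containing spray; expected mixture response by Colby.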

winter wheat (TRZAW) = experiment: Postemergence greenhouse trial, % visual injury on winter wheat; assay type: in vivo, Triticum aestivum
Description: (§1) Seeds of the desired test plant species were planted in Sun Gro MetroMix® 306 planting mixture, which typically has a pH of 6.0 to 6.8 and an organic matter content of about 30 percent, in plastic pots with a surface area of 103.2 square centimeters (cm^2). When required to ensure good germination and healthy plants, a fungicide treatment and/or other chemical or physical treatment was applied. The plants were grown for 7-36 days (d) in a greenhouse with an approximate 14-hour (h) photoperiod which was maintained at about 23° C. during the day and 22° C. during the night. Nutrients and water were added on a regular basis and supplemental lighting was provided with overhead metal halide 1000-Watt lamps as necessary. The plants were employed for testing when they reached the second or third true leaf stage.
(§2) Weighed amounts of technical material were dissolved in a volume of 97:3 volume per volume (v/v) acetone/dimethyl sulfoxide (DMSO) to stock solutions. […] The concentrated stock solutions were diluted with an aqueous mixture of 1.5% v/v of Agri-dex crop oil concentrate to provide the appropriate application rates. Compound requirements are based upon a 12 milliliter (mL) application volume at a rate of 187 liters per hectare (L/ha). Stocks solutions of the safeners were prepared following the same procedure. Spray solutions of the safeners and experimental compound mixtures were prepared by adding the stock solutions to the appropriate amount of dilution solution to form a 12 mL spray solution in two-way combinations. Formulated compounds were applied to the plant material with an overhead Mandel track sprayer equipped with 8002E nozzles calibrated to deliver 187 L/ha over an application area of 0.503 square meters (m^2) at a spray height of 18 inches (43 centimeters (cm)) above average plant canopy. Control plants were sprayed in the same manner with the solvent blank. All herbicide application (component a) rates are in g ae/ha and all safener (component b) rates are in g ai/ha.
(§3) The treated plants and control plants were placed in a greenhouse as described above and watered by sub-irrigation to prevent wash-off of the test compounds. After 20-22 d, the condition of the test plants as compared with that of the control plants was determined visually and scored on a scale of 0 to 100 percent where 0 corresponds to no injury and 100 corresponds to complete kill. The condition of the test plants was compared with that of the control plants as determined visually and scored on a scale of 0 to 100 percent, where 0 corresponds to no injury and 100 corresponds to complete kill. Colby's equation was used to determine the herbicidal effects expected from the mixtures.
(§4) The safener cloquintocet-mexyl was combined with compound 1, compound 2, compound 3, compound 7, compound 8, compound 9, compound 10, compound 11, compound 12, compound 13, compound 14, compound 15, compound 16, compound 17, compound 18, compound 19, and compound 20, and applied to spring wheat (TRZAS), winter wheat (TRZAW), and spring barley (HORVS) and the phytotoxicity of the herbicidal compositions was measured. […]

velvetleaf (ABUTH) = experiment: Postemergence greenhouse trial, % visual injury on velvetleaf; assay type: in vivo, Abutilon theophrasti; settings: alone, 35 g/ha
Description: as §1, §2, §3
(§5) The safener cloquintocet-mexyl was combined with compound 1, compound 2, compound 4, compound 5, and compound 6, and applied to corn/maize (ZEAMX) and spring wheat (TRZAS) and the phytotoxicity of the herbicidal compositions was measured. In addition, the efficacy of the herbicidal composition on velvetleaf (ABUTH, Abutilon theophrasti), pigweed (AMARE, Amaranthus retroflexus), winter rape (BRSNW, Brassica napus), lambsquarters (CHEAL, Chenopodium album), thistle (CIRAR, Cirsium arvense), nutsedge (CYPES, Cyperus esculentus), poinsettia (EPHHL, Euphorbia heterophylla), wild buckwheat (POLCO, Polygonum convolvulus), giant foxtail (SETFA, Setaria faberi), and chickweed (STEME, Stellaria media) was evaluated.
as §4

wild chamomile (MATCH) = experiment: Postemergence greenhouse trial, % visual injury on wild chamomile; assay type: in vivo, Matricaria chamomilla
Description: as §1, §2
as §3, with “mixtures. […]” for “mixtures.”

chickweed (STEME) = experiment: Postemergence greenhouse trial, % visual injury on chickweed; assay type: in vivo, Stellaria media; settings: alone, 35 g/ha
Description: as §1, §2, §3
as §5, with “evaluated. […]” for “evaluated.”

shepherd's purse (CAPBP) = experiment: Postemergence greenhouse trial, % visual injury on shepherd's purse; assay type: in vivo, Capsella bursa-pastoris
cornflower (CENCY) = experiment: Postemergence greenhouse trial, % visual injury on cornflower; assay type: in vivo, Centaurea cyanus or Cyanus segetum

SMILES: CCCCCC(C)OC(=O)COc1ccc(Cl)c2cccnc12 (stereo not shown) [CQC-m, cloquintocet-mexyl, reference compound]
- % visual injury, observed (Ob) (corn/maize (ZEAMX); safener alone 2.5 g/ha): 0%
- % visual injury, observed (Ob) (corn/maize (ZEAMX); safener alone 5 g/ha): 0%
- % visual injury, observed (Ob) (corn/maize (ZEAMX); safener alone 10 g/ha): 0%
- % visual injury, observed (Ob) (corn/maize (ZEAMX); safener alone 20 g/ha): 0%
- % visual injury, Ob (corn/maize (ZEAMX)): 0%
- % visual injury, Ob (winter wheat (TRZAW); TRZAW, compound 0 g/ha, CQC-m 35 g/ha): 0%
- % visual injury, Ob (winter wheat (TRZAW); TRZAW, compound 0 g/ha, CQC-m 70 g/ha): 0%
- % visual injury, observed (Ob) (winter wheat (TRZAW); TRZAW, safener alone 2.5 g/ha): 0%
- % visual injury, observed (Ob) (winter wheat (TRZAW); TRZAW, safener alone 5 g/ha): 0%
- % visual injury, observed (Ob) (winter wheat (TRZAW); TRZAW, safener alone 10 g/ha): 0%
- % visual injury, observed (Ob) (winter wheat (TRZAW); TRZAW, safener alone 20 g/ha): 0%
- % visual injury, Ob (winter wheat (TRZAW); alone, 35 g/ha): 0%
- % visual injury, Ob (winter wheat (TRZAW); alone, 70 g/ha): 0%
- % visual injury, Ob (velvetleaf (ABUTH)): 0%
- % visual injury, Ob (wild chamomile (MATCH); compound 0, CQC-m 4.375 g/ha): 0%
- % visual injury, Ob (wild chamomile (MATCH); compound 0, CQC-m 8.75 g/ha): 0%
- % visual injury, Ob (wild chamomile (MATCH); compound 0, CQC-m 17.5 g/ha): 0%
- % visual injury, Ob (wild chamomile (MATCH); compound 0, CQC-m 35 g/ha): 0%
- % visual injury, Ob (wild chamomile (MATCH); compound 0, CQC-m 70 g/ha): 0%
- % visual injury, Ob (chickweed (STEME)): 0%
- % visual injury, Ob (shepherd's purse (CAPBP); compound 0, CQC-m 4.375 g/ha): 0%
- % visual injury, Ob (shepherd's purse (CAPBP); compound 0, CQC-m 8.75 g/ha): 0%
- % visual injury, Ob (shepherd's purse (CAPBP); compound 0, CQC-m 17.5 g/ha): 0%
- % visual injury, Ob (shepherd's purse (CAPBP); compound 0, CQC-m 35 g/ha): 0%
- % visual injury, Ob (shepherd's purse (CAPBP); compound 0, CQC-m 70 g/ha): 0%
- % visual injury, Ob (shepherd's purse (CAPBP); compound 0 g/ha, CQC-m 4.375 g/ha): 0%
- % visual injury, Ob (shepherd's purse (CAPBP); compound 0 g/ha, CQC-m 8.75 g/ha): 0%
- % visual injury, Ob (shepherd's purse (CAPBP); compound 0 g/ha, CQC-m 17.5 g/ha): 0%
- % visual injury, Ob (shepherd's purse (CAPBP); compound 0 g/ha, CQC-m 35 g/ha): 0%
- % visual injury, Ob (shepherd's purse (CAPBP); compound 0 g/ha, CQC-m 70 g/ha): 0%
- % visual injury, Ob (cornflower (CENCY); CENCY, compound 0, CQC-m 4.375 g/ha): 0%
- % visual injury, Ob (cornflower (CENCY); CENCY, compound 0, CQC-m 8.75 g/ha): 0%
- % visual injury, Ob (cornflower (CENCY); CENCY, compound 0, CQC-m 17.5 g/ha): 0%
- % visual injury, Ob (cornflower (CENCY); CENCY, compound 0, CQC-m 35 g/ha): 0%
- % visual injury, Ob (cornflower (CENCY); CENCY, compound 0, CQC-m 70 g/ha): 0%
- % visual injury, Ob (cornflower (CENCY); CENCY, compound 0 g/ha, CQC-m 4.375 g/ha): 0%
- % visual injury, Ob (cornflower (CENCY); CENCY, compound 0 g/ha, CQC-m 8.75 g/ha): 0%
- % visual injury, Ob (cornflower (CENCY); CENCY, compound 0 g/ha, CQC-m 17.5 g/ha): 0%
- % visual injury, Ob (cornflower (CENCY); CENCY, compound 0 g/ha, CQC-m 35 g/ha): 0%
- % visual injury, Ob (cornflower (CENCY); CENCY, compound 0 g/ha, CQC-m 70 g/ha): 0%
- % visual injury, Ob (cornflower (CENCY); alone, 17.5 g/ha): 0%
- % visual injury, Ob (cornflower (CENCY); alone, 70 g/ha): 0%

SMILES: Nc1c(F)c(-c2ccc3cc[nH]c3c2F)nc(C(=O)O)c1Cl [compound 1]
- % visual injury, observed (Ob) (corn/maize (ZEAMX); compound 1 alone 20 g/ha): 3%
- % visual injury, observed (Ob) (corn/maize (ZEAMX); compound 1 alone 40 g/ha): 30%
- % visual injury, Ob (corn/maize (ZEAMX)): 40%
- % visual injury, observed (Ob) (winter wheat (TRZAW); TRZAW, compound 1 alone 20 g/ha): 13%
- % visual injury, observed (Ob) (winter wheat (TRZAW); TRZAW, compound 1 alone 40 g/ha): 15%
- % visual injury, Ob (winter wheat (TRZAW); alone, 35 g/ha): 40%
- % visual injury, Ob (winter wheat (TRZAW); alone, 70 g/ha): 50%
- % visual injury, Ob (chickweed (STEME)): 100%
- % visual injury, Ob (cornflower (CENCY); alone, 17.5 g/ha): 100%
- % visual injury, Ob (cornflower (CENCY); alone, 70 g/ha): 100%

SMILES: CO/C=N/c1c(F)c(-c2ccc3cc[nH]c3c2F)nc(C(=O)OC)c1Cl [compound 10]
- % visual injury, Ob (shepherd's purse (CAPBP); compound 8.75 g/ha, CQC-m 0): 60%
- % visual injury, Ob (shepherd's purse (CAPBP); compound 35 g/ha, CQC-m 0): 100%

SMILES: COC(=O)c1nc(-c2ccc3cc[nH]c3c2F)c(F)c(N)c1OC [compound 12]
- % visual injury, Ob (wild chamomile (MATCH); compound 4.380 g/ha, CQC-m 0): 5%
- % visual injury, Ob (wild chamomile (MATCH); compound 8.75 g/ha, CQC-m 0): 3%
- % visual injury, Ob (wild chamomile (MATCH); compound 17.5 g/ha, CQC-m 0): 7%
- % visual injury, Ob (wild chamomile (MATCH); compound 35 g/ha, CQC-m 0): 10%
- % visual injury, Ob (wild chamomile (MATCH); compound 70 g/ha, CQC-m 0): 13%
- % visual injury, Ob (shepherd's purse (CAPBP); compound 8.75 g/ha, CQC-m 0): 100%
- % visual injury, Ob (shepherd's purse (CAPBP); compound 35 g/ha, CQC-m 0): 100%

SMILES: COc1c(C(=O)O)nc(-c2ccc3cc[nH]c3c2F)c(F)c1N [compound 13]
- % visual injury, Ob (winter wheat (TRZAW); TRZAW, compound 35 g/ha, CQC-m 0 g/ha): 70%
- % visual injury, Ob (winter wheat (TRZAW); TRZAW, compound 70 g/ha, CQC-m 0 g/ha): 80%
- % visual injury, Ob (shepherd's purse (CAPBP); compound 4.375 g/ha, CQC-m 0 g/ha): 85%
- % visual injury, Ob (shepherd's purse (CAPBP); compound 8.75 g/ha, CQC-m 0 g/ha): 100%
- % visual injury, Ob (shepherd's purse (CAPBP); compound 17.5 g/ha, CQC-m 0 g/ha): 100%
- % visual injury, Ob (shepherd's purse (CAPBP); compound 35 g/ha, CQC-m 0 g/ha): 100%
- % visual injury, Ob (shepherd's purse (CAPBP); compound 70 g/ha, CQC-m 0 g/ha): 100%
- % visual injury, Ob (cornflower (CENCY); CENCY, compound 4.375 g/ha, CQC-m 0 g/ha): 100%
- % visual injury, Ob (cornflower (CENCY); CENCY, compound 8.75 g/ha, CQC-m 0 g/ha): 100%
- % visual injury, Ob (cornflower (CENCY); CENCY, compound 17.5 g/ha, CQC-m 0 g/ha): 100%
- % visual injury, Ob (cornflower (CENCY); CENCY, compound 35 g/ha, CQC-m 0 g/ha): 100%
- % visual injury, Ob (cornflower (CENCY); CENCY, compound 70 g/ha, CQC-m 0 g/ha): 100%
